Results reported in ChEMBL document CHEMBL1137837 (Bioorg Med Chem Lett, 2004).

What was measured:
[1] = Partition coefficient (logD); type: physicochemical; settings: octanol/water
[2] = organism: Oryctolagus cuniculus; assay: Concentration required to inhibit electrically induced contraction of superfused guinea-pig trachea was determined
[3] = molecular target: Beta-2 adrenergic receptor (Homo sapiens, UniProt P07550)
Description: Binding affinity for human beta-2 adrenergic receptor

[4] = organism: Oryctolagus cuniculus; assay: Duration action in guinea pig

Chain of Beta-2 adrenergic receptor (P07550 whole entry): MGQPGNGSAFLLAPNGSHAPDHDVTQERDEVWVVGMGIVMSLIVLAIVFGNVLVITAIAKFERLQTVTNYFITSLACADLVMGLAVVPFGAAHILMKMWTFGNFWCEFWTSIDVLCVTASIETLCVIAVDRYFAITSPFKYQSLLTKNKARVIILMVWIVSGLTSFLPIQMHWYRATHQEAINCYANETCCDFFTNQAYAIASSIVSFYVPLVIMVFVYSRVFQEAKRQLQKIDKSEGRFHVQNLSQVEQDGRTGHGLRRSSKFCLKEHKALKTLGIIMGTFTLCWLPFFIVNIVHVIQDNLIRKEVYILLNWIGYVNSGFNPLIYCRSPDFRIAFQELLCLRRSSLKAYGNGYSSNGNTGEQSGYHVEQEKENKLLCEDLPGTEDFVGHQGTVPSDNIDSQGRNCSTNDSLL

Row | SMILES | logD ([1]; read-out: logD) | IC50 [2] [nM] | Ki [3] [nM] | logD [1] | Duration [4] [h]
1 | O=CNc1cc([C@@H](O)CNCCc2ccc(OCCCc3ccccc3)cc2)ccc1O | 2.35 | 38 | 5.9 |  | 
2 | O=CNc1cc([C@@H](O)CNCCc2ccc(OC3Cc4ccccc4C3)cc2)ccc1O | 2.95 | 251 | 11.6 |  | 
3 | O=CNc1cc([C@@H](O)CNCCc2cccc(OCCCOc3ccccc3)c2)ccc1O | 2 | 164 | 3.3 | 2.49 | 5.43
4 | OCc1cc(C(O)CNCCCCCCOCCCCc2ccccc2)ccc1O (stereo unspecified) [SALMETEROL] |  |  |  | 1.24 | 
5 | O=CNc1cc([C@@H](O)CNCCc2ccc(OCCc3ccccc3)cc2)ccc1O | 1.67 | 1.1 | 7.8 |  | 
6 | O=CNc1cc([C@@H](O)CNCCc2cccc(OCCCCc3ccccc3)c2)ccc1O | 2.83 | 114 | 8.5 |  | 
7 | O=CNc1cc([C@@H](O)CNCCc2ccc(Oc3ccccc3)cc2)ccc1O | 1.95 | 120 | 35.4 |  | 
8 | O=CNc1cc([C@@H](O)CNCCc2ccc(OCCCCc3ccccc3)cc2)ccc1O | 2.83 | 71 | 9.2 | 2.76 | 6.62
